Data taken from ChEMBL document CHEMBL4229569, “Structure-Based Design of 1-Heteroaryl-1,3-propanediamine Derivatives as a Novel Series of CC-Chemokine Receptor 5 Antagonists” (J Med Chem, 2018).

How the values were obtained:
[1] = AUC in rat at 10 mg/kg, po administered as single dose; format: ADME, organism-based; conditions: in vivo
Canis familiaris [2] = assay: Oral bioavailability in dog at 2 mg/kg by LC-MS/MS analysis; format: ADME, organism-based, Canis lupus familiaris; conditions: in vivo
Hepatocyte [3] = assay: Metabolic stability in rat hepatocytes assessed as compound remaining by UPLC/Q-TOF mass spectrometric analysis; format: ADME, cell-based
Hepatocyte [4] = assay: Metabolic stability in human hepatocytes assessed as compound remaining by UPLC/Q-TOF mass spectrometric analysis; format: ADME, cell-based
Rattus norvegicus = assay: Tmax in Sprague-Dawley rat at 10 mg/kg, po by LC-MS/MS analysis; format: ADME, organism-based; conditions: in vivo
[5] = Cmax in Sprague-Dawley rat at 10 mg/kg, po by LC-MS/MS analysis; format: ADME, organism-based; parameters: dose 10 mg/kg, route oral; conditions: in vivo
[6] = Cytotoxicity against human TZM-bl cells after 48 hrs by MTT assay; format: cell-based
Canis familiaris [7] = assay: Clearance in dog at 0.5 mg/kg, iv by LC-MS/MS analysis; format: ADME, organism-based, Canis lupus familiaris; conditions: in vivo
[8] = Cmax in dog at 2 mg/kg, po by LC-MS/MS analysis; format: ADME, organism-based, Canis lupus familiaris; parameters: dose 2 mg/kg, route oral; conditions: in vivo
Canis familiaris [9] = assay: AUC (0 to infinity) in dog at 2 mg/kg, po by LC-MS/MS analysis; format: ADME, organism-based, Canis lupus familiaris; parameters: dose 2 mg/kg, route oral, time infinity; conditions: in vivo
[10] = Tmax in dog at 2 mg/kg, po by LC-MS/MS analysis; format: ADME, organism-based, Canis lupus familiaris; conditions: in vivo
Hepatocyte [11] = assay: Metabolic stability in dog hepatocytes assessed as compound remaining by UPLC/Q-TOF mass spectrometric analysis; format: ADME, cell-based, Canis lupus familiaris

Compound: Cc1nnc(C(C)C)n1[C@@H]1C[C@H]2CC[C@@H](C1)N2CC[C@H](NC(=O)C1CCC(F)(F)CC1)c1ccccc1 [MARAVIROC]
- AUC [1]: 12.4 ng·h/mL
- F (Canis familiaris [2]): 40%
- Stability (Hepatocyte [3]): 79%
- Stability (Hepatocyte [4]): 33%
- Tmax (Rattus norvegicus): 120 min
- Cmax [5]: 5.5 ng/mL
- CC50 at 48 h [6]: > 200 µM
- clearance (Canis familiaris [7]): 21 mL/min/kg
- Cmax [8]: 256 ng/mL
- AUC (Canis familiaris [9]): 583 ng·h/mL
- Tmax [10]: 45 min
- Stability (Hepatocyte [11]): 45%
